Data on 5 molecules can be found in patent publication US20240287138A1, “CYCLIC PEPTIDES FOR INHIBITING TNF RECEPTOR 1 ACTIVITY” (Merck Sharp & Dohme LLC, priority 2023, published 2024).

For assay [1], the target named is T1, human soluble TNFR1 (sTNFR1) (Homo sapiens, UniProt P19438).
T1 construct: made in house; host or cells: Sf21 (baculovirus)
T1 sequence (P19438 with tags, fused parts or gaps): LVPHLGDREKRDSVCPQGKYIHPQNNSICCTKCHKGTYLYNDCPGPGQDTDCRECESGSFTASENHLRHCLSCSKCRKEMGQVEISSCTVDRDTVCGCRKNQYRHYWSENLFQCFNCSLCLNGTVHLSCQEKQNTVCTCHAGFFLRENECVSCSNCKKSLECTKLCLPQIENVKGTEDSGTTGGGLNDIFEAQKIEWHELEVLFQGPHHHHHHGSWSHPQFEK
Briefly: Human sTNFR1-peptide displacement assay (LanthaScreen Eu TR-FRET binding assay). Put shortly:
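Readout is the 665/615 nm TR-FRET ratio (Eu anti-His donor, streptavidin-Alexa647 acceptor), normalized to DMSO and saturating displacer, fit by Morrison-based five-parameter logistic for Kd^app. His-tagged sTNFR1 (1-211) prebound to 100 nM biotinylated peptide SEQ ID NO.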

A further assay concerns the target T2, human TNFR2 ECD protein (Homo sapiens, UniProt P20333).
T2 construct: HRV 3C protease cleavage site (C); 6His (C, cleaved yes); made in house; host or cells: Sf21 insect cells (baculovirus), secreted
T2 sequence (P20333 23-257): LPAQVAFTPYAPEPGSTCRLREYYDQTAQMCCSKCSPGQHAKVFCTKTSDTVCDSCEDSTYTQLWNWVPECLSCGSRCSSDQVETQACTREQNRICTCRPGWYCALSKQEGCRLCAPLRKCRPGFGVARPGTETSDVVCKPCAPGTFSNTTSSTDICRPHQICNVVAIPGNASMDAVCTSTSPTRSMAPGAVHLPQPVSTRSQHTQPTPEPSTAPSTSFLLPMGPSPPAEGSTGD
Briefly: SPR off-target binding (selectivity) to human TNFR2 ECD. The gist of the method: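 Read-out: kon, koff and derived affinity from SPR response units. Human TNFR1 and TNFR2 ECD, Avi-tag biotinylated with BirA, captured on a streptavidin surface; peptides injected under laminar flow in HEPES-saline with EDTA, P20 and 2% DMSO.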

Numbered stars: 1 amine (or outer) side, 2 acyl side, 3 side chain; on linkers, the order of the positions; unused ones are H or OH. Bridge positions count the residues as written; N and C are the ends. Square brackets hold non-standard residues; d marks the D form. Peptide text beside a SMILES is read from it. * marks the point of attachment. Trp(βS-Me,7-OMe) = COc1cccc2c([C@H](C)[C@H](N)C(=O)O)c[nH]c12; Trp(7-CN) = N#Cc1cccc2c(C[C@H](N)C(=O)O)c[nH]c12; Trp(7-Cl) = N[C@@H](Cc1c[nH]c2c(Cl)cccc12)C(=O)O; Phe(3-CONH2) = NC(=O)c1cccc(C[C@H](N)C(=O)O)c1; Phe(4-CONH2) = NC(=O)c1ccc(C[C@H](N)C(=O)O)cc1; Phe(4-COOH) = N[C@@H](Cc1ccc(C(=O)O)cc1)C(=O)O; Trp(7-aza) = N[C@@H](Cc1c[nH]c2ncccc12)C(=O)O; Pip(5R-OH) = O=C(O)[C@@H]1CC[C@@H](O)CN1; X1 = O=C([C@@H]1CC[C@H](N[*:1])C1)[*:2]; Isoxazole(3-carbonyl) = O=C(c1ccon1)*; Pip(4-aza) = O=C(O)[C@@H]1CNCCN1; hPhe = N[C@@H](CCc1ccccc1)C(=O)O; 4Pal = N[C@@H](Cc1ccncc1)C(=O)O; NMeE = CN[C@@H](CCC(=O)O)C(=O)O; dHyp = O=C(O)[C@H]1C[C@H](O)CN1; X7 = CC[C@@H](C(=O)[*:1])[*:2]; Ahp(2) = CCCCC[C@H](N)C(=O)O; αMeS = C[C@](N)(CO)C(=O)O; Nle = CCCC[C@H](N)C(=O)O; Dab = NCC[C@H](N)C(=O)O; Sar = CNCC(=O)O

For the molecule `CCCC[C@@H]1NC(=O)[C@@H]2CC[C@@H](C2)NC(=O)[C@H]([C@@H](C)c2c[nH]c3c(OC)cccc23)NC(=O)CN(C)C(=O)[C@H](Cc2ccc(O)cc2)NC(=O)[C@H](Cc2ccc(C(N)=O)cc2)NC(=O)[C@](C)(CO)NC(=O)[C@H](Cc2c[nH]c3c(Cl)cccc23)NC(=O)[C@H](Cc2ccncc2)NC(=O)[C@H](CC(N)=O)NC(=O)[C@H](CCC(=O)O)N(C)C(=O)[C@H](Cc2c[nH]c3ccccc23)NC(=O)[C@@H]2CC[C@@H](O)CN2C(=O)[C@H](Cc2ccncc2)NC1=O` [SEQ ID NO. 163] (cyclo([4Pal][Trp(7-Cl)][αMeS][Phe(4-CONH2)]Y[Sar][Trp(βS-Me,7-OMe)][X1][Nle][4Pal][Pip(5R-OH)]W[NMeE]N)), the results for the Kd (in assay [1]; on human TNFR2 ECD protein) were 0.05 nM and above 1000 nM, respectively.

On to `CCCC[C@@H]1NC(=O)[C@H](CC)SC[C@@H](C(N)=O)NC(=O)[C@H]([C@@H](C)c2c[nH]c3c(OC)cccc23)NC(=O)CN(C)C(=O)[C@H](Cc2ccc(O)cc2)NC(=O)[C@H](Cc2ccc(C(N)=O)cc2)NC(=O)[C@](C)(CO)NC(=O)[C@H](Cc2c[nH]c3c(Cl)cccc23)NC(=O)[C@H](Cc2ccc(C(=O)O)cc2)NC(=O)[C@H](CC(N)=O)NC(=O)[C@H](CCC(=O)O)N(C)C(=O)[C@H](Cc2c[nH]c3ncccc23)NC(=O)[C@@H]2CC[C@@H](O)CN2C(=O)[C@H](Cc2ccncc2)NC1=O` [SEQ ID NO. 168] ([Nle][4Pal][Pip(5R-OH)][Trp(7-aza)][NMeE]N[Phe(4-COOH)][Trp(7-Cl)][αMeS][Phe(4-CONH2)]Y[Sar][Trp(βS-Me,7-OMe)]C-NH2; linker N-14 via X7), for which the IC50 in assay [1] is 0.3 nM. In addition, the Kd on human TNFR2 ECD protein is above 1000 nM.

Take `COc1cccc2c([C@H](C)[C@@H]3NC(=O)CN(C)C(=O)[C@H](Cc4cccc(C(N)=O)c4)NC(=O)[C@H](Cc4ccc(C(N)=O)cc4)NC(=O)[C@](C)(CO)NC(=O)[C@H](Cc4c[nH]c5c(Cl)cccc45)NC(=O)[C@H](Cc4ccncc4)NC(=O)[C@H](CC(N)=O)NC(=O)[C@H]4C[C@H](O)CN4C(=O)[C@H](Cc4c[nH]c5ccccc45)NC(=O)[C@@H]4CC[C@@H](O)CN4C(=O)[C@H](Cc4ccncc4)NC(=O)[C@H](CCNC(=O)c4ccon4)NC(=O)[C@@H]4CC[C@@H](C4)NC3=O)c[nH]c12` [SEQ ID NO. 169] (cyclo([4Pal][Trp(7-Cl)][αMeS][Phe(4-CONH2)][Phe(3-CONH2)][Sar][Trp(βS-Me,7-OMe)][X1][Dab](Isoxazole(3-carbonyl))[4Pal][Pip(5R-OH)]W[dHyp]N)): the Kd in assay [1] is 0.16 nM; on human TNFR2 ECD protein, above 1000 nM.

Consider `CCCC[C@@H]1NC(=O)CSC[C@@H](C(N)=O)NC(=O)[C@H]([C@@H](C)c2c[nH]c3c(OC)cccc23)NC(=O)CN(C)C(=O)[C@H](Cc2ccc(O)cc2)NC(=O)[C@H](Cc2ccc(C(=O)O)cc2)NC(=O)[C@](C)(CO)NC(=O)[C@H](Cc2c[nH]c3c(Cl)cccc23)NC(=O)[C@H](Cc2ccncc2)NC(=O)[C@H](CC(N)=O)NC(=O)[C@H](CCC(=O)O)N(C)C(=O)[C@H](Cc2c[nH]c3ncccc23)NC(=O)[C@@H]2CNCCN2C(=O)[C@H](CCc2ccccc2)NC1=O` [SEQ ID NO. 172] ({CH2CO}-[Nle][hPhe][Pip(4-aza)][Trp(7-aza)][NMeE]N[4Pal][Trp(7-Cl)][αMeS][Phe(4-COOH)]Y[Sar][Trp(βS-Me,7-OMe)]C-NH2; thioether N-14), for which, in assay [1], the IC50 stood at 0.63 nM and the Kd worked out at 0.57 nM. Moreover, the Kd on human TNFR2 ECD protein is above 1000 nM.

As for `CCCCC[C@@H]1NC(=O)[C@@H]2CC[C@@H](C2)NC(=O)[C@H]([C@@H](C)c2c[nH]c3c(OC)cccc23)NC(=O)CN(C)C(=O)[C@H](Cc2cccc(C(N)=O)c2)NC(=O)[C@H](Cc2ccc(C(N)=O)cc2)NC(=O)[C@](C)(CO)NC(=O)[C@H](Cc2c[nH]c3c(C#N)cccc23)NC(=O)[C@H](Cc2ccncc2)NC(=O)[C@H](CC(N)=O)NC(=O)[C@H]2C[C@H](O)CN2C(=O)[C@H](Cc2c[nH]c3ccccc23)NC(=O)[C@@H]2CNCCN2C(=O)[C@H](Cc2ccncc2)NC1=O` [SEQ ID NO. 174] (cyclo([4Pal][Trp(7-CN)][αMeS][Phe(4-CONH2)][Phe(3-CONH2)][Sar][Trp(βS-Me,7-OMe)][X1][Ahp(2)][4Pal][Pip(4-aza)]W[dHyp]N)), the values for the Kd (in assay [1]; on human TNFR2 ECD protein) were 0.06 nM and above 1000 nM, respectively.
